# Source: patent EP2014168A1, “Insecticidal heterocyclic compounds” (priority 2007, dated 2009)
# Columns and labels:
# Myzus persicae [1] = assay: Myzus test - oral; format: in vivo; settings: read-out: Wirkung
# Description: Lösungsmittel: 80,0 Gewichtsteile Aceton
# Zur Herstellung einer zweckmäßigen Wirkstoffzubereitung vermischt man 1 Gewichtsteil Wirkstoff mit den angegebenen Mengen Lösungsmittel und verdünnt das Konzentrat mit Wasser auf die gewünschte Konzentration.
# Gefäße werden mit allen Stadien der Grünen Pfirsichblattlaus (Myzus persicae) besetzt, durch saugen an der Wirkstoffzubereitung der gewünschten Konzentration wird behandelt.
# Nach der gewünschten Zeit wird die Wirkung in % bestimmt. Dabei bedeutet 100 %, dass alle Blattläuse abgetötet wurden; 0 % bedeutet, dass keine Blattläuse abgetötet wurden.
# Myzus persicae [2] = assay: Myzus test (spray treatment); format: in vivo; settings: foliar, read-out: Wirkung
# Description: Myzus-Test (Spritzbehandlung)
# Zur Herstellung einer zweckmäßigen Wirkstoffzubereitung vermischt man 1 Gewichtsteil Wirkstoff mit den angegebenen Mengen Lösungsmittel und Emulgator und verdünnt das Konzentrat mit emulgatorhaltigem Wasser auf die gewünschte Konzentration.
# Chinakohlblattscheiben (Brassica pekinensis), die von allen Stadien der Grünen Pfirsichblattlaus (Myzus persicae) befallen sind, werden mit einer Wirkstoffzubereitung der gewünschten Konzentration gespritzt.
# Nach der gewünschten Zeit wird die Wirkung in % bestimmt. Dabei bedeutet 100 %, dass alle Blattläuse abgetötet wurden; 0 % bedeutet, dass keine Blattläuse, abgetötet wurden.
# [3] = logP determination (acidic, formic acid)
# physchem = settings: formic acid
# [4] = 500 g/ha, spray on infested Brassica pekinensis leaf discs, 100 % = all aphids killed
# [5] = 500 g/ha, oral uptake by sucking on the active compound preparation, 100 % = all aphids killed
structure (smiles),measurement,setting,value
Cc1cnc2c(c1)CCC2N=C1NCCO1 (stereo not shown) [Beispiel 43],mortality at 500 g/ha,Myzus persicae [1]; po,≥ 80%
CNC(=S)N1CCOC1=NC1CCc2ccsc21 (stereo not shown) [Beispiel 7],mortality at 500 g/ha,Myzus persicae [2]; [4],≥ 80%
CCOC(=O)CNC(=S)N1CCOC1=NC1CCc2cc(C)cnc21 (stereo not shown) [Beispiel 47],mortality at 500 g/ha,Myzus persicae [1]; [5],≥ 80%
CCOC(=O)CNC(=S)N1CCOC1=NC1CCc2ccsc21 (stereo not shown) [Beispiel 14],mortality at 500 g/ha,Myzus persicae [2]; [4],≥ 80%
CNC(=S)N1CCOC1=NC1CCc2cc(C)cnc21 (stereo not shown) [Beispiel 44],mortality at 500 g/ha,Myzus persicae [1]; [5],≥ 80%
"O=C(NCCCl)NC1CCc2ccsc21 (stereo not shown) [Beispiel 1, 1-(2-Chloroethyl)-3-(5,6-dihydro-4H-cyclopenta[b]thien-6-yl)-harnstoff]",logP,[3]; formic acid,1.77
"COCCNC(=S)N1CCO/C1=N\C1CCc2ccsc21 (stereo not shown) [Beispiel 3, (2Z)-2-(5,6-Dihydro-4H-cyclopenta[b]thien-6-ylimino)-N-(2-methoxyethyl)-1,3-oxazolidine-3-carbothioamid]",logP,[3]; acidic,3.32
same,mortality at 500 g/ha,Myzus persicae [2]; [4],≥ 80%
CNC(=S)N1CCOC1=NC1CCc2ncccc21 (stereo not shown) [Beispiel 30],mortality at 500 g/ha,Myzus persicae [2]; [4],≥ 80%
"c1cc2c(s1)C(NC1=NCCO1)CC2 (stereo not shown) [Beispiel 2, N-(5,6-Dihydro-4H-cyclopenta[b]thien-6-yl)-4,5-dihydro-1,3-oxazol-2-amin]",logP,physchem,0.42
same,mortality at 500 g/ha,Myzus persicae [2]; in Brassica rapa,≥ 80%
"COCCNC(=S)N1CCO/C1=N\C1CCc2ncccc21 (stereo not shown) [Beispiel 6, (2Z)-2-(6,7-Dihydro-5H-cyclopenta[b]pyridin-5-ylimino)-N-(2-methoxyethyl)-1,3-oxazolidine-3-carbothioamid]",logP,[3]; acidic,1.03
same,mortality at 500 g/ha,Myzus persicae [2]; [4],≥ 80%
"O=C(NCCCl)NC1CCc2ncccc21 (stereo not shown) [Beispiel 4, 1-(2-Chloroethyl)-3-(6,7-dihydro-5H-cyclopenta[b]pyridin-5-yl)-harnstoff]",logP,[3]; acidic,0.23
CNC(=S)N1CCOC1=NC1CCc2cc(Cl)sc21 (stereo not shown) [Beispiel 19],mortality at 500 g/ha,Myzus persicae [2]; [4],≥ 80%
Clc1cc2c(s1)C(N=C1NCCO1)CC2 (stereo not shown) [Beispiel 18],mortality at 500 g/ha,Myzus persicae [2]; [4],≥ 80%
